{
  "source": "paper PMC10948969",
  "about": "(Nature cancer, 2023)",
  "key": {"WNT reporter (TOP-GFP)": {"tested_on": "WNT reporter (TOP-GFP)", "test": "TOP-GFP Wnt reporter in MYC-CTNNB1 organoids", "format": "cell-based, mouse", "conditions": "24 h after treatment"}, "[1]": {"tested_on": "MYC-Tp53 tumor organoid allografts", "test": "MYC-Tp53 tumor organoid allografts in C57BL/6 mice", "format": "in vivo, mouse", "conditions": "30 mg kg−1 daily oral gavage, treatment from 100 mm3"}, "[2]": {"test": "Single-dose oral pharmacokinetics in BALB/c mice", "format": "in vivo, mouse"}, "[3]": {"tested_on": "CTNNB1-mutated HCC (MYC-lucOS; CTNNB1)", "test": "Hydrodynamic tail-vein", "format": "in vivo, mouse", "conditions": "5 d on and 2 d off"}, "[4]": {"test": "In vivo dose escalation / tolerability in mice"}, "ERK1": {"biological_target": "ERK1 (Homo sapiens, UniProt P27361)", "sequence (P27361 whole entry)": "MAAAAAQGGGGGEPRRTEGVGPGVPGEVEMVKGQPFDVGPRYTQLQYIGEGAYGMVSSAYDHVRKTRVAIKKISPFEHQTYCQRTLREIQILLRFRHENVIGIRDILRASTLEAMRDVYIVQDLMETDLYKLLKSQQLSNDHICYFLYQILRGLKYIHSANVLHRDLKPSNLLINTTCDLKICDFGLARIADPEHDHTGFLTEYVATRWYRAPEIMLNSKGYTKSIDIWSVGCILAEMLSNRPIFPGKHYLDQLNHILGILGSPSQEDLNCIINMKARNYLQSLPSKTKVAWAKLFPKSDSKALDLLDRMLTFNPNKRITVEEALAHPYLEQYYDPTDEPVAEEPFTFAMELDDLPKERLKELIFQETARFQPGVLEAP", "test": "In vitro kinase assay with EZH2 T367 peptide, ERK", "format": "biochemical", "conditions": "inhibitor 1 μM, EZH2 peptide 1 μM"}, "[5]": {"tested_on": "KIT, PDGFRα/β, VEGFR1/2, RET and FLT3", "test": "Kinome profiling", "format": "binding", "conditions": "in vitro kinome selectivity profile"}, "[6]": {"tested_on": "MYC-CTNNB1 tumor organoid allografts", "test": "MYC-CTNNB1 tumor organoid allografts in C57BL/6 mice", "format": "in vivo, mouse", "conditions": "30 mg kg−1 daily oral gavage, treatment from 100 mm3"}, "p38 (MAPK14)": {"biological_target": "p38 (MAPK14) (Homo sapiens, UniProt Q16539)", "sequence (Q16539 whole entry)": "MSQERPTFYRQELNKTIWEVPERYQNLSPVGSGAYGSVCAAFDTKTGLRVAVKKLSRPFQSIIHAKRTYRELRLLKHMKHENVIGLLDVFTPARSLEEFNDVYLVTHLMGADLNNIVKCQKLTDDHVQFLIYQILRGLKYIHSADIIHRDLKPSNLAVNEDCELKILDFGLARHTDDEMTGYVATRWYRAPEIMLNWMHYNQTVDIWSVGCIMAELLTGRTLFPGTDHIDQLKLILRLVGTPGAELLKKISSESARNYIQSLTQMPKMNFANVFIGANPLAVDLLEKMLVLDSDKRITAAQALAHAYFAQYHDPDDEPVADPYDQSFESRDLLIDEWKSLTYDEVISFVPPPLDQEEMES", "test": "In vitro kinase assay with EZH2 T367 peptide, p38", "format": "biochemical", "conditions": "inhibitor 1 μM, EZH2 peptide 1 μM"}, "[7]": {"tested_on": "MYC-CTNNB1 tumor organoids", "test": "Drug toxicity", "format": "cell-based, mouse"}, "HEPG2 cells": {"tested_on": "HEPG2 cells", "test": "Drug toxicity", "format": "cell-based, human", "conditions": "3 d"}},
  "note": "pIC50: −log10 of the molar value.",
  "data": [
    {"smiles": "CCCc1cc(C)[nH]c(=O)c1CNC(=O)c1cc(-c2ccnc(N3CCN(C)CC3)c2)cc2c1cnn2C(C)C", "note": "[GSK343]", "values": [
      {"measurement": "WNT-driven GFP reporter expression", "setting": "WNT reporter (TOP-GFP)", "value": "neither small molecule (MS1943 or GSK343) dampened the expression of the WNT reporter"}
    ]},
    {"smiles": "Cc1cc(C)c(CNC(=O)c2cc(-c3ccc(N4CCN(CCNC(=O)CC56CC7CC(CC(C7)C5)C6)CC4)nc3)cc3c2cnn3C(C)C)c(=O)[nH]1", "note": "[MS1943]", "values": [
      {"measurement": "WNT-driven GFP reporter expression", "setting": "WNT reporter (TOP-GFP)", "value": "neither small molecule (MS1943 or GSK343) dampened the expression of the WNT reporter"}
    ]},
    {"smiles": "COc1cc2nccc(Oc3ccc(NC(=O)NC4CC4)c(Cl)c3)c2cc1C(N)=O", "note": "[lenvatinib]", "values": [
      {"measurement": "anti-tumor activity", "setting": "[1]", "value": "measurable anti-tumor activity"}
    ]},
    {"smiles": "CNC(=O)c1cc(Oc2ccc(NC(=O)Nc3ccc(Cl)c(C(F)(F)F)c3)cc2)ccn1", "note": "[sorafenib, reference compound]", "values": [
      {"measurement": "anti-tumor activity", "setting": "[1]", "value": "measurable anti-tumor activity"},
      {"measurement": "half-life", "setting": "[2]; female, BALB/c, mouse, plasma, po, 20 mg/kg", "value": 8, "unit": "h"},
      {"measurement": "survival benefit", "setting": "[3]; 30 mg kg−1 oral, started 7 d post-injection", "value": 7.5, "unit": "days"}
    ]},
    {"smiles": "CNC(=O)c1cc(Oc2ccc(NC(=O)Nc3ccc(Cl)c(C(F)(F)F)c3)c(F)c2)ccn1", "note": "[regorafenib]", "values": [
      {"measurement": "anti-tumor activity", "setting": "[1]", "value": "measurable anti-tumor activity"}
    ]},
    {"smiles": "CNC(=O)c1cc(Oc2ccc(NC(=O)Nc3ccc(C(F)(F)C(F)(F)F)cc3)c(F)c2)ccn1", "note": "[WNTinib]", "values": [
      {"measurement": "anti-tumor activity", "setting": "[1]", "value": "inactive"},
      {"measurement": "phenotype on extended treatment", "setting": "[4]; mice treated for >3 weeks, consistent with on-target KIT inhibition", "value": "fur depigmentation"},
      {"measurement": "signs of sickness or toxicity", "setting": "[4]; three mouse strains, dosed daily for 2 weeks, oral dose escalation", "value": "No mice showed signs of sickness, or evident toxicity in the liver, intestine or kidney"},
      {"measurement": "inhibition of EZH2 Thr367 peptide phosphorylation by ERK", "setting": "ERK1", "value": "did not inhibit this phosphorylation in vitro"},
      {"measurement": "inhibition of proposed key targets of sorafenib and regorafenib", "setting": "[5]", "value": "maintained potent inhibition"},
      {"measurement": "tumor regression", "setting": "[6]", "value": "induced significant tumor regression"},
      {"measurement": "plasma concentration", "setting": "[2]; 24 h after oral dosing, 20 mg kg−1, BALB/c mice", "value": 7, "unit": "µM"},
      {"measurement": "half-life", "setting": "[2]; BALB/c mice, oral, 20 mg kg−1", "value": 9.38, "unit": "h"},
      {"measurement": "detectable quantities of drug in blood plasma post-dosing", "setting": "[2]; oral, 20 mg kg−1", "value": "up to 72 h"},
      {"measurement": "WNT-driven GFP reporter expression", "setting": "WNT reporter (TOP-GFP)", "value": "the only compound to downregulate WNT-driven GFP expression"},
      {"measurement": "inhibition of EZH2 Thr367 peptide phosphorylation by p38", "setting": "p38 (MAPK14)", "value": "did not inhibit this phosphorylation in vitro"},
      {"measurement": "survival of remaining animals after the final dosing", "setting": "[3]; 20 mg kg−1 oral", "value": "> 300", "unit": "days"},
      {"measurement": "fraction of treatment arm that succumbed to death", "setting": "[3]; 20 mg kg−1 oral, started 7 d post-injection", "value": 40, "unit": "%"},
      {"measurement": "pIC50", "setting": "[7]; read-out: IC50 in MYC-CTNNB1 organoids, without cKit knockdown, treated 3 d", "value": "> 6.00"},
      {"measurement": "combination index (CI) with dabrafenib", "setting": "[7]; titration of BRAF inhibitor dabrafenib, 3 d, CI > 1 = antagonized", "value": "> 1"},
      {"measurement": "combination index (CI) with SCF", "setting": "[7]; titration of KIT ligand SCF, 3 d, CI >1 = antagonized", "value": "> 1"},
      {"measurement": "combination index (CI) with SB202190", "setting": "[7]; titration of p38α/β inhibitor SB202190, 3 d, CI > 1 = antagonized", "value": "> 1"},
      {"measurement": "efficacy with drug-resistant p38α (Thr106Met) or BRAF (Thr529Asn)", "setting": "HEPG2 cells; HEPG2 transduced with gatekeeper mutants vs parental", "value": "largely unchanged"},
      {"measurement": "activity under MEK overexpression", "setting": "HEPG2 cells; constitutively active MEK1 (Ser218Asp, Ser222Asp) in HEPG2", "value": "effectively eliminated WNTinib activity"},
      {"measurement": "shift of IC50 by MKK6 overexpression", "setting": "HEPG2 cells; constitutively active MKK6 (Ser207Glu, Thr211Glu) vs parental HEPG2", "value": "~ 30 fold"},
      {"measurement": "efficacy under activated KIT overexpression", "setting": "HEPG2 cells; doxycycline-inducible activated KIT double mutant in HEPG2", "value": "greatly reduced"}
    ]}
  ]
}
